Data taken from US10934297B2, “5-heteroaryl substituted indazole-3-carboxamides and preparation and use thereof” (Samumed, LLC, priority 2018, dated 2021).

Experiments:
[1] = system: primary human fibroblasts derived from IPF patients (LL29 cells); experiment: Inhibition of the fibrotic process: αSMA staining in TGF-β1 treated LL29 fibroblasts; format: cell-based; details: Homo sapiens, Fibroblast, 96 h; LL29 cells, TGF-β1 20 ng/mL, 4 days, % αSMA positive cells
Procedure, shortened: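 LL29 fibroblasts from IPF patients, in F12 medium with 1% FBS, treated with TGF-β1 plus compound; TGF-β1 with DMSO as positive control, DMSO alone as negative control. After 4 days' incubation, SYTOX green nucleic acid stain added at 1 μM final, 30 min at room temperature.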

DYRK1A kinase = DYRK1A kinase (Homo sapiens (Human), UniProt Q13627); experiment: DYRK1A kinase assay (Ser/Thr 18 peptide Z-lyte FRET); format: biochemical; details: read-out: EC50 (method: IC50)
Procedure, shortened: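 This Z-lyte FRET assay reads the coumarin/fluorescein emission ratio. Compounds were incubated with the reaction mixture for 1 h at room temperature, followed by development reagent for a further 1 h at room temperature, in duplicate.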

IL-6 = IL-6 inhibition in LPS-stimulated human peripheral blood mononuclear cells (HTRF); format: cell-based; details: Homo sapiens, PBMC; for EC50: huPBMCs, LPS 50 ng/mL, 22 hours, IL-6 HTRF; for inhibition at 10 µM: read-out: percent inhibition at 10 μM
Procedure, shortened: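 Fresh human PBMCs at 1×10e6 cells/mL in RPMI/1% FBS were stimulated with 50 ng/mL E. coli 0111:B4 LPS added 2 h after compound, then incubated 22 h at 37° C. Secreted IL-6 was measured by HTRF (665/620 nm ratio) after 3 h at room temperature. EC50 was taken from activity normalized to DMSO-treated cells.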

[2] = system: SW480 colon carcinoma cells; experiment: Cell viability assay (CellTiter-Glo) in SW480 colon carcinoma cells; format: cell-based, human; details: Homo sapiens, 96 h, four days
Procedure, shortened: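 SW480 cells stably carrying an Sp5-promoter luciferase reporter were plated at 2,000 cells/well in DMEM with 1% FBS and treated with compound for four days at 37 °C. Viability was read as ATP luminescence with CellTiter-Glo after about 12 min; DMSO-treated wells served as controls.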

[3] = system: Wnt activity (Sp5-Luc reporter in SW480 cells); experiment: Screening assay for Wnt activity: Sp5-Luc reporter gene assay in SW480 colon carcinoma cells; format: cell-based, human; details: Homo sapiens, 36 to 48 hours
Procedure, shortened: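 SW480 colon carcinoma cells stably carrying a lentiviral luciferase reporter driven by an Sp5 promoter with eight TCF/LEF sites, plated at 4,000 cells/well in DMEM with 1% FBS. Compound exposure for 36–48 h at 37 °C, then luminescence read. Signals normalized to DMSO; EC50 from four-parameter nonlinear fit.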

[4] = system: primary human mesenchymal stem cells (hMSCs); experiment: Tenocyte differentiation assay (SCXA-positive cells) in hMSCs; format: cell-based; details: for EC50: Homo sapiens, Mesenchymal stem cells, 96 h, hMSCs, 4 days, SCXA positive cells; for percent in parentheses under EC50 >100: given for EC50 >100 μM, meaning not defined in this example
Procedure, shortened: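 Passage 3–6 hMSCs were compound-treated, fixed in 4% formaldehyde and stained overnight at 4 °C with anti-SCXA antibody; SCXA-positive cells were counted by imaging. Counts were normalized to the mean of 12 DMSO wells as fold change, averaged over 3 replicate wells per concentration, and curve-fitted for EC50.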

GSK3β kinase = GSK3β kinase (Homo sapiens (Human), UniProt P49841); experiment: GSK3β kinase assay (Ser/Thr 09 peptide Z-lyte FRET); format: biochemical; details: read-out: EC50 (method: IC50)
Procedure, shortened: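 Non-radioactive Z-lyte FRET read-out, kinase activity expressed as coumarin/fluorescein emission ratio. Compounds incubated with the reaction mixture one hour at room temperature in duplicate, then development buffer added for another hour. IC50 from non-linear regression of dose-response curves.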

GSK3β kinase, sequence (P49841 whole entry): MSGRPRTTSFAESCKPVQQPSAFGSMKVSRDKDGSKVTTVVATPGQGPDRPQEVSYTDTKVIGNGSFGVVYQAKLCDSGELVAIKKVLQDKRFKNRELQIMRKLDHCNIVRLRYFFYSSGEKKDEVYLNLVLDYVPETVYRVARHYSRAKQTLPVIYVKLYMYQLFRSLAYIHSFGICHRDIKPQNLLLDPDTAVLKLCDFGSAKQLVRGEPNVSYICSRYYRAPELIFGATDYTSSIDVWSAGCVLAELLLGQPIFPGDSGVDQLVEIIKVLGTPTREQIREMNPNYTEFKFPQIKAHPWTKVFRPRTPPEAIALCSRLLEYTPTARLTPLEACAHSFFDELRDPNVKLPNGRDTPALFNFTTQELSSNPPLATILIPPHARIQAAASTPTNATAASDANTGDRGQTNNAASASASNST

Compound | EC50 [1] [nM] | IC50 (DYRK1A kinase) [nM] | EC50 (IL-6) [nM] | EC50 [2] [nM] | EC50 [3] [nM] | EC50 [4] [nM] | IC50 (GSK3β kinase) [nM] | percent in parentheses under EC50 >100 [4] | inhibition at 10 µM (IL-6) [%]
CN1CCC(n2cc(NC(=O)c3n[nH]c4ccc(-c5cnn(C)c5)cc34)cn2)CC1 [Compound 141, 5-(1-Methyl-1H-pyrazol-4-yl)-N-(1-(1-methylpiperidin-4-yl)-1H-pyrazol-4-yl)-1H-indazole-3-carboxamide] | 103 | 1 | 382 | 64 | 79 | 930 | 4 | – | –
CN1CCC(n2cc(-c3ccc4[nH]nc(C(=O)Nc5cnn(C)c5)c4c3)cn2)CC1 [Compound 142, N-(1-Methyl-1H-pyrazol-4-yl)-5-(1-(1-methylpiperidin-4-yl)-1H-pyrazol-4-yl)-1H-indazole-3-carboxamide] | 115 | 8 | 1100 | 116 | 130 | > 100000 | 208 | (38.2%) | –
Cc1cc(NC(=O)c2n[nH]c3ccc(-c4cnn(C5CCN(C)CC5)c4)cc23)sn1 [Compound 143, N-(3-Methylisothiazol-5-yl)-5-(1-(1-methylpiperidin-4-yl)-1H-pyrazol-4-yl)-1H-indazole-3-carboxamide] | 207 | 5 | 1410 | 60 | 90 | > 100000 | 52 | (23.0%) | –
Cc1cnc(NC(=O)c2n[nH]c3ccc(-c4cnn(C5CCN(C)CC5)c4)cc23)s1 [Compound 144, 5-(1-(1-Methylpiperidin-4-yl)-1H-pyrazol-4-yl)-N-(5-methylthiazol-2-yl)-1H-indazole-3-carboxamide] | 2190 | 8 | > 10000 | 1300 | > 10000 | > 100000 | 6440 | (27.4%) | 49
CC(C)CN1CC[C@H](NC(=O)c2n[nH]c3ccc(-c4cn[nH]c4)cc23)[C@@H](F)C1 [Compound 145, N-((3 S,4S)-3-Fluoro-1-isobutylpiperidin-4-yl)-5-(1H-pyrazol-4-yl)-1H-indazole-3-carboxamide] | 100 | 37 | 1140 | 372 | 345 | 863 | 41 | – | –
CN1CCC(CNC(=O)c2n[nH]c3ccc(-c4cnn(C)c4)cc23)CC1 [Compound 147, 5-(1-Methyl-1H-pyrazol-4-yl)-N-((1-methylpiperidin-4-yl)methyl)-1H-indazole-3-carboxamide] | 723 | 26 | 1070 | 6700 | 3870 | 2640 | 15 | – | –
Cc1ncc(-c2ccc3[nH]nc(C(=O)NC4CCN(c5ccc(F)cc5)CC4)c3c2)n1C [Compound 148, 5-(1,2-Dimethyl-1H-imidazol-5-yl)-N-(1-(4-fluorophenyl)piperidin-4-yl)-1H-indazole-3-carboxamide] | 4620 | 49 | > 10000 | 8020 | 4490 | 3090 | 57 | – | 24.2
CN1CCN(c2cccc(NC(=O)c3n[nH]c4cc(F)c(-c5cnn(C)c5)cc34)c2)CC1 [Compound 149, 6-Fluoro-5-(1-methyl-1H-pyrazol-4-yl)-N-(3-(4-methylpiperazin-1-yl)phenyl)-1H-indazole-3-carboxamide] | > 10000 | 1 | > 10000 | 331 | 217 | > 100000 | 49 | (36.0%) | 44.7
